{"source": "patent US12037419B2", "about": "(The Feinstein Institutes for Medical Research, priority 2016, dated 2024)", "key": {"[1]": {"molecular_target": "T1, sRAGE-C1q-HMGB1 complex", "T1 construct": "soluble RAGE (sRAGE) was immobilized on the sensor chip; C1q purified from pooled normal human sera; purchased R&D Systems (hrRAGE); Complement Technology (C1q)", "T1 sequence (Q15109 23-342 limits assumed)": "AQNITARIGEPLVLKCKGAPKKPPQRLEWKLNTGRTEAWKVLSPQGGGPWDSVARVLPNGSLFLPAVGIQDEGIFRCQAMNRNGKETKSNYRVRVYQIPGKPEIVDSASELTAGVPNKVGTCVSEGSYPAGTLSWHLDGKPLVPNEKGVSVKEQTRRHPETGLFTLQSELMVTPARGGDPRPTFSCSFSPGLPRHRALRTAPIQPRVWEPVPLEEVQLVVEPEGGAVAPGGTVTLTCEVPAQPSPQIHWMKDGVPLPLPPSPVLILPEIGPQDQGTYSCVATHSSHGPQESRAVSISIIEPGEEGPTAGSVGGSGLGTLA", "T1 sequence (P09429 whole entry, further chain)": "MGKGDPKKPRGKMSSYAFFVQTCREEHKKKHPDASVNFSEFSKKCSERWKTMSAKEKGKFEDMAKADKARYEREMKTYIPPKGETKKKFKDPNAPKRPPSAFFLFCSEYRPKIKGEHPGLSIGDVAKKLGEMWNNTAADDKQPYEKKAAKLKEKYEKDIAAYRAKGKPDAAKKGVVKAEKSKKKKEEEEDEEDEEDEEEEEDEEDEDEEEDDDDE", "T1 sequence (P02745 23-245, further chain)": "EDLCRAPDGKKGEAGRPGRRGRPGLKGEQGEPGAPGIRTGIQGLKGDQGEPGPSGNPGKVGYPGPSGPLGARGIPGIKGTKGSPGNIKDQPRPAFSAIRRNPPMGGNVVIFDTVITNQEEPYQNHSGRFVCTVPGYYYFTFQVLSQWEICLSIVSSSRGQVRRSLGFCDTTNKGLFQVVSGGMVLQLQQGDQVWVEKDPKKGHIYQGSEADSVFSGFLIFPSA", "T1 sequence (P02746 28-253, further chain)": "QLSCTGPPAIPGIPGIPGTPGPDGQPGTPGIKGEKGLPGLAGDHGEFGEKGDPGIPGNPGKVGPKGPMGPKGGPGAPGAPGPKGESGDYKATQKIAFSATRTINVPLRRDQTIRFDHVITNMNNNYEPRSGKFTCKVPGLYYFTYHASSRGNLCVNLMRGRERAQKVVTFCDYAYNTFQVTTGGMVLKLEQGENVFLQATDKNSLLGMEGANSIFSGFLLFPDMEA", "T1 sequence (P02747 29-245, further chain)": "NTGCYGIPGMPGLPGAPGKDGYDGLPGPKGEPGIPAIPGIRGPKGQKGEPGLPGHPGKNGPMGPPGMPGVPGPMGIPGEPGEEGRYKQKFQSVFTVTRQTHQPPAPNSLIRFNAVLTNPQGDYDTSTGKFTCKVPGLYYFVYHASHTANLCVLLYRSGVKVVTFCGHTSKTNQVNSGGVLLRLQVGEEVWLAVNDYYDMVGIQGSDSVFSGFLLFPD", "test": "RAGE-C1q-HMGB1 trimolecular complex formation (SPR and C1q-coated beads)", "assay_type": "binding, human", "conditions": "sRAGE immobilized, C1q 200 nM, HMGB1 500 nM, either order", "experimental": "The dissociation time was set for 1 minute.\nTrimolecular complex assay: Biotinylated-C1q (20 μg/ml) was precoated to SpeedBeads™ (Streptavidin-conjugated microbeads, Thermo Scientific). Beads were saturated with HMGB1, then incubated with RAGE."}, "[2]": {"system": "human monocytes", "test": "HMGB1-induced monocyte activation (cytokine mRNA by q-PCR, protein by ELISA/MSD)", "assay_type": "cell-based", "experimental": "(§1) Monocyte isolation and stimulation: Human PBMCs were obtained following institutional guidelines of the Feinstein Institute for Medical Research (Feinstein) and isolated from blood of healthy donors by density centrifugation (New York Blood Bank). Monocytes were negatively enriched using a human monocyte enrichment kit (Stem Cell Technology). Purity of monocytes (≥90% CD11b+CD14+LAIR-1+) was determined by flow cytometry. […] Splenic murine monocytes from wild type mice, RAGE deficient or LAIR-1 conditional knockout mice were isolated using EasySep mouse monocyte enrichment kit (Stem Cell Technology). C57BL/6 mice, Lysozyme2-Cre transgenic mice were purchased from Jackson Laboratory. Myeloid specific LAIR-1 conditional knockout mice (Lysozyme2-Cre×LAIR fl/fl) were bred and maintained in our facility (Feinstein) under specific pathogen-free conditions. RAGE deficient mice (Department of Medicine, Karolinska Institute Stockholm, Sweden) were maintained at Feinstein. Eight-to ten weeks old male mice were used for experiments. All animal procedures were approved by the Feinstein Institutional Animal Care and Use Committee.\n(§2) RT-PCR analysis and primers: Total RNA was extracted from cells (1-2×10^6 cells per sample) with an RNeasy kit (Qiagen, Venlo, Limburg, Netherlands) and cDNA was generated using an iScript cDNA synthesis kit (Bio-Rad laboratories). Real Time-PCR was performed on a Light Cycler 480 II (Roche) using Light Cycler 480 master mix with primers (Applied Biosystems) for IFNα1 (Hs00256882), IFNα7 (mm02525960), MX1 (Hs00182073, mm01217998), IL-6 (Hs00985639, mm99999064), TNFα (Hs00174128, mm00443258), IL-12a (Hs00168405), Mer (Hs01031973), PDL-1 (Hs01125301), IL-10 (Hs00961622), CD163 (Hs00174705), HPRT1 (Hs99999909, mm01545399) and Polr2a (Hs00172187). The genes of interest were normalized to the expression of house keeping genes and were compared to a control condition with no treatment. The relative induction was calculated by 2-ΔΔCt.\nTransfection: For RNA interference assays, human monocytes were transfected using an Amaxa Nucleofector kit (Lonza) with a greater than 40% transfection efficiency. siRNAs were obtained from Qiagen. The target sequence of human LAIR1-11 is […] (SEQ ID NO:9). The efficiency of knockdown was determined by flow cytometry and q-PCR.\n(§3) Cytokine analysis: Cytokine levels were measured using a Human Proinflammatory 7-plex assay following the manufacturer's protocols (Meso Scale Discovery (MSD). MSD plates were analyzed on the MS2400 imager (MSD). All standards and samples were run in duplicates."}, "[3]": {"system": "splenic monocytes of C57BL/6 wild type, RAGE deficient or LAIR-1 deficient mice", "test": "HMGB1-induced gene transcription in murine splenic monocytes (wild type, RAGE deficient, LAIR-1 deficient)", "assay_type": "cell-based, mouse", "experimental": "as §1, §2"}, "[4]": {"system": "human monocytes", "test": "Internalization of FITC-labeled HMGB1 or CpG by monocytes (immunofluorescence microscopy)", "assay_type": "cell-based", "experimental": "Immunofluorescence Microscopy: In situ proximal ligation assay was performed according to manufacturer's protocol (Duolink, Sigma). Following stimulation, human monocytes were washed three times with ice-cold PBS and were fixed with 4% (wt/vol) PFA for 1 hour at room temperature, seeded (2×10^5 cells) on slides using cytospin (Shandon), permeablized with chilled MeOH for 4 min and with PBS/0.1% (vol/vol) Triton X-100 and blocked for 1 h at room temperature. Cells were then incubated overnight with a primary antibody pair directed to rabbit anti-RAGE (ab3611, Abcam) and to mouse anti-LAIR-1 (BD Bioscience), respectively. The cells were incubated with corresponding PLA probes conjugated to oligonucleotides (mouse MINUS and rabbit PLUS), then followed by ligation and rolling circle amplification in close proximity. Images were acquired using AxioVision software and a confocal microscope (Olympus). Quantification was performed using Zen2 (Zeiss). […] Cells were washed three times with cold-PBS and fixed with 4% PFA and stained with PECy5-anti-human CD14 antibody (BD biosciences) or propidium iodide (PI). […] PI or DAPI was used for nuclear staining. […] After washing, cells were stained with Alexa Fluor 594 anti-rabbit IgG (Life Technologies), and mounted DAPI-containing medium. […]"}, "[5]": {"system": "human monocytes", "test": "CpG- or LPS-induced cytokine transcription in monocytes", "assay_type": "cell-based", "experimental": "as §1, with “All animal procedures were approved by the Feinstein Institutional Animal Care and Use Committee.” left out\n(§4) RT-PCR analysis and primers: Total RNA was extracted from cells (1-2×10^6 cells per sample) with an RNeasy kit (Qiagen, Venlo, Limburg, Netherlands) and cDNA was generated using an iScript cDNA synthesis kit (Bio-Rad laboratories). […] The relative induction was calculated by 2-ΔΔCt."}, "[6]": {"molecular_target": "T2, RAGE and LAIR-1 (Homo sapiens, UniProt Q15109+Q6GTX8)", "T2 construct": "endogenous in cells; host or cells: primary human monocytes from blood of healthy donors", "T2 sequence (Q15109 23-404)": "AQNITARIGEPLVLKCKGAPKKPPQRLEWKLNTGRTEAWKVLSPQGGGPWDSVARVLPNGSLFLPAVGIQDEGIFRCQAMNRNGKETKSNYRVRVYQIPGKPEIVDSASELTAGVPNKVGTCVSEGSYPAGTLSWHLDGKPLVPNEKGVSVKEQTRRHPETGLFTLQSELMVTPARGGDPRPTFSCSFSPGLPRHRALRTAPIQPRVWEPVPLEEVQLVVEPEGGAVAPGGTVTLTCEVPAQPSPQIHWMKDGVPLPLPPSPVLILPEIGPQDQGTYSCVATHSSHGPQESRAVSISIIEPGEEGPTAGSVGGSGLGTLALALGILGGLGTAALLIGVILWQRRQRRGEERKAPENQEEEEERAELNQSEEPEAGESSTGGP", "T2 sequence (Q6GTX8 22-287)": "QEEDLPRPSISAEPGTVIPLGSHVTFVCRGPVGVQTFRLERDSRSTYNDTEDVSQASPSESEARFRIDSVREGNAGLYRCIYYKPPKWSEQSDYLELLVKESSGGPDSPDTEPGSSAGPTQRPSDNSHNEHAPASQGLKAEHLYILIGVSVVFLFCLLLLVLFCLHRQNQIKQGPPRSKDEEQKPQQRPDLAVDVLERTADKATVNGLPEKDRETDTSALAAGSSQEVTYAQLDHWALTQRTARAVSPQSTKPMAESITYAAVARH", "test": "Proximity ligation assay (PLA) for colocalization of RAGE and LAIR-1 on monocytes", "assay_type": "cell-based", "experimental": "Cells were then incubated overnight with a primary antibody pair directed to rabbit anti-RAGE (ab3611, Abcam) and to mouse anti-LAIR-1 (BD Bioscience), respectively. The cells were incubated with corresponding PLA probes conjugated to oligonucleotides (mouse MINUS and rabbit PLUS), then followed by ligation and rolling circle amplification in close proximity. Images were acquired using an AxioImage Z1 (Zeiss) apotome enabled (Zeiss) Fluorescent-intensity analysis of the images was performed using Zen2 (Zeiss).\nImmunofluorescence Microscopy: In situ proximal ligation assay was performed according to manufacturer's protocol (Duolink, Sigma). Following stimulation, human monocytes were washed three times with ice-cold PBS and were fixed with 4% (wt/vol) PFA for 1 hour at room temperature, seeded (2×10^5 cells) on slides using cytospin (Shandon), permeablized with chilled MeOH for 4 min and with PBS/0.1% (vol/vol) Triton X-100 and blocked for 1 h at room temperature. Cells were then incubated overnight with a primary antibody pair directed to rabbit anti-RAGE (ab3611, Abcam) and to mouse anti-LAIR-1 (BD Bioscience), respectively. The cells were incubated with corresponding PLA probes conjugated to oligonucleotides (mouse MINUS and rabbit PLUS), then followed by ligation and rolling circle amplification in close proximity. […] Quantification was performed using Zen2 (Zeiss). […]"}, "[7]": {"system": "human monocytes", "test": "Induction of anti-inflammatory molecules / M2-like phenotype (Mer, PDL-1, IL-10, CD163) in monocytes", "assay_type": "cell-based", "experimental": "as §1, §4, §3\nFlow cytometry: Cells were suspended in staining buffer containing 2% BSA and incubated with Fc block (Miltenyi Biotec) for 15 min on ice. […] Events were acquired using either an LSRII or Fortessa cell analyzer (BD Biosciences), and data were analyzed using FlowJo (Tree star)."}, "[8]": {"system": "human monocytes", "test": "Monocyte to DC differentiation with GM-CSF and IL-4 (flow cytometry)", "assay_type": "cell-based", "conditions": "compared with C1q alone"}, "[9]": {"conditions": "C1q 25 μg/ml, HMGB1 3 μg/ml, 6 h"}, "[10]": {"conditions": "HMGB1 3 μg/ml, C1q 25 μg/ml, 6 h"}}, "data": [{"substance": "C1q: C1q purified from pooled normal human sera, obtained from Complement Technology", "values": [{"measurement": "trimolecular complex formation with HMGB1 and sRAGE", "setting": "[1]", "value": "formed a trimolecular complex"}, {"measurement": "HMGB1-induced IFN, IL-6 and TNFα in adherent cell fraction of PBMCs", "setting": "[2]; [9]", "value": "inhibited this HMGB1-mediated activation"}, {"measurement": "HMGB1-mediated cytokine induction in monocytes treated with LAIR-1-specific siRNA", "setting": "[2]; [9]", "value": "no effect"}, {"measurement": "HMGB1-induced monocyte activation in the presence of soluble decoy receptor LAIR-2", "setting": "[2]; C1q 25 μg/ml, LAIR-2 20 μg/ml, HMGB1 3 μg/ml, 6 h", "value": "failed to inhibit monocyte activation"}, {"measurement": "transcription of cytokine genes in the absence of HMGB1", "setting": "[2]; C1q alone, serum free medium", "value": "did not alter transcription"}, {"measurement": "monocyte activation by HMGB1, C1q levels commonly present in SLE patients", "setting": "[2]; C1q ˜25-50 μg/ml", "value": "less inhibitory"}, {"measurement": "HMGB1-mediated cytokine transcription and protein induction", "setting": "[2]; HMGB1 3 μg/ml, various C1q concentrations, serum free medium, 6 h mRNA, 24 h protein", "value": "counteracted the HMGB1-mediated cytokine transcription and protein induction in a dose-dependent manner"}, {"measurement": "inhibitory effect of C1q at increased HMGB1 level", "setting": "[2]; HMGB1 10 μg ml-1", "value": "abrogated the inhibitory effect of C1q"}, {"measurement": "monocyte activation by HMGB1, physiologic levels of C1q", "setting": "[2]; physiologic C1q levels", "value": "effectively blocked monocyte activation"}, {"measurement": "HMGB1-induced gene transcription in RAGE-deficient cells", "setting": "[3]; [10]", "value": "no change in HMGB1-induced gene transcription"}, {"measurement": "HMGB1-induced proinflammatory cytokine gene transcription in wild type cells", "setting": "[3]; [10]", "value": "reduction in HMGB1-induced proinflammatory cytokine gene transcription"}, {"measurement": "HMGB1-induced mRNA expression in LAIR-1 deficient monocytes", "setting": "[3]; Lysozyme-Cre x floxed LAIR-1 mice", "value": "no inhibitory effect"}, {"measurement": "internalization of FITC-labeled CpG oligonucleotides", "setting": "[4]; 15 min", "value": "significantly reduced cellular internalization"}, {"measurement": "cytosolic FITC-HMGB1 (internalization)", "setting": "[4]; FITC-HMGB1 3 μg/ml, C1q 25 μg ml-1, 15 min, 37° C.", "value": "significantly decreased"}, {"measurement": "CpG-mediated induction of pro-inflammatory cytokines and IFN inducible genes", "setting": "[5]; CpG 2216", "value": "inhibits CpG-mediated induction of pro-inflammatory cytokines"}, {"measurement": "LPS-induced cytokine transcription", "setting": "[5]; LPS", "value": "no effect on LPS-induced cytokine transcription"}, {"measurement": "RAGE-LAIR-1 colocalization (PLA fluorescence)", "setting": "[6]; C1q with or without HMGB1", "value": "only detected in the presence of C1q"}, {"measurement": "RAGE-LAIR-1 cross-linking with C1q co-incubated with LAIR-2", "setting": "[6]; data not shown", "value": "negated the cross-linking of RAGE and LAIR-1"}, {"measurement": "potency of physiologic C1q levels versus SLE levels (25-50 μg/ml) for Mer, PDL-1, IL-10, CD163 mRNA", "setting": "[7]; C1q 10, 25, 50 or 75 μg/ml with HMGB1, 24 h", "value": "more potent"}, {"measurement": "transcription and protein expression of anti-inflammatory factors (Mer, PDL-1, IL-10, CD163)", "setting": "[7]; together with HMGB1 3 μg/ml, C1q 25 μg/ml or C1q tail 53 μg/ml, 24 h", "value": "induced the transcription and protein expression of a variety of anti-inflammatory factors"}, {"measurement": "expression of CD14 and LAIR-1 after GM-CSF and IL-4, pre-exposure to both HMGB1 and C1q", "setting": "[8]", "value": "significantly higher"}]}]}
